Measured values taken from publication PMC5908784, “Extracellular loops 2 and 3 of the calcitonin receptor selectively modify agonist binding and efficacy” (Biochemical Pharmacology, 2018).
Substitutions are numbered along the chain they refer to. Where no end group is shown, it is not given here.

Experiments:
Assay in all cases: Homologous whole cell competition binding
Details in all cases: homologous competition of 125I-sCT(8-32), whole cells, mean ± S.E.M., SEM
[1] = biological target: T1, hCTR Y374A (Homo sapiens, UniProt P30988, Y374A)
T1 construct: c-Myc (N); expressed in transfected cells
T1 sequence (P30988 25-474 Y374A): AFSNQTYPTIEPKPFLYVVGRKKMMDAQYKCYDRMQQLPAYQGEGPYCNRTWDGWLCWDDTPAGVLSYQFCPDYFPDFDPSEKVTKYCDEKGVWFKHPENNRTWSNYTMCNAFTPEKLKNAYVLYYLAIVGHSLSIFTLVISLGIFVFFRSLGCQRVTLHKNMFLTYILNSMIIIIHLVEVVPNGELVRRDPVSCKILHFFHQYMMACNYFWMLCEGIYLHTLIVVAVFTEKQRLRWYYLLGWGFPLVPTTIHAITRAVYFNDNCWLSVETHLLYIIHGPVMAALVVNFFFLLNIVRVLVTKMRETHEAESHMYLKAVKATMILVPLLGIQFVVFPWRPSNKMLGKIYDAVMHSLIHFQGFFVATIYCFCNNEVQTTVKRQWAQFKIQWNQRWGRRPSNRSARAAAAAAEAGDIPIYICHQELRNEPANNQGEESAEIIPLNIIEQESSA
Method in brief: (§1)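 Values are pKi, derived from IC50 of unlabelled sCT(8-32) displacing ^125I-sCT(8-32) (25–100 pM) from whole cells after overnight incubation at 4 °C. Specific binding was scaled between tracer-only total and 1 μM cold-peptide background.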

[2] = biological target: T2, hCTR V283A (Homo sapiens, UniProt P30988, V283A)
T2 construct: expressed in transfected cells
T2 sequence (P30988 25-474 V283A): T1 sequence (P30988 25-474 Y374A) with V259A, A350Y
Method in brief: as §1

[3] = biological target: T3, hCTR H296A (Homo sapiens, UniProt P30988, H296A)
T3 construct: c-Myc (N); expressed in transfected cells
T3 sequence (P30988 25-474 H296A): T1 sequence (P30988 25-474 Y374A) with H272A, A350Y
Method in brief: as §1

[4] = biological target: T4, hCTR D373A (Homo sapiens, UniProt P30988, D373A)
T4 construct: c-Myc (N); expressed in transfected cells
T4 sequence (P30988 25-474 D373A): T1 sequence (P30988 25-474 Y374A) with D349A, A350Y
Method in brief: as §1

- Ki [1]: 0.148 nM
- Ki [2]: 0.214 nM
- Ki [3]: 0.269 nM
- Ki [4]: 0.525 nM
Substance: VLGKLSQELHKLQTYPRTNTGSGTP-NH2 [sCT(8-32)]
